Measurements as given in PMC9118204, “Novel Dihydropyrimidinone Derivatives as Potential P-Glycoprotein Modulators” (ACS Omega, 2022).

Experiments:
[1] = test system: colorectal adenocarcinoma (Caco-2) cell line; experiment: MTT cytotoxicity assay against Caco-2 cells; type: cell-based; settings: for cytotoxic activity in words: halogen in the N-phenyl substituent
Method: The colorectal adenocarcinoma Caco-2 cell line was generously provided by the Zydus Research Centre, Ahmedabad, Gujarat, India. These cells were maintained in DMEM (Hi-Media) containing 25 mM HEPES buffer, 1000 mg/L glucose, L-glutamine, sodium bicarbonate, and sodium pyruvate and supplemented with 20% heat-inactivated FBS (cell clone), 1% (v/v) minimal essential medium nonessential amino acids (Hi-Media), antibiotic, and antimycotic (penicillin, streptomycin, and amphotericin B; Hi-Media) in a humidified atmosphere of 5% CO2 at 37 °C. […] Caco-2 VB cells, which overexpress hPGP, were generated by growing Caco-2 cells in the presence of 1 μg/mL vinblastine. The drug was removed from the culture medium 2–3 days prior to using the Caco-2 VB cells in the biological assays.
Caco-2 cells were cultured in 96-well plates until they reached 70–80% confluency and then treated with the TRZ-DHPM derivatives (0.1–100 μM). Cytotoxicity was determined using an MTT (3-(4,5-dimethylthiazol-2-yl)-2,5-diphenyltetrazolium bromide) assay as described previously.[31]

hPgp = target: T1, hPgp (Homo sapiens, UniProt P08183); experiment: Fluorescence microscopy imaging of intracellular calcein in Caco-2 VB cells; type: cell-based; settings: for intracellular calcein retention by fluorescence microscopy: Caco-2-VB cells, 1 μM calcein-AM, 30 min, concentration = EC50
T1 construct: Caco-2 VB cells, which overexpress hPGP, were generated by growing Caco-2 cells in the presence of 1 μg/mL vinblastine; endogenous in cells; host or cells: Caco-2 VB (vinblastine-resistant human colorectal adenocarcinoma Caco-2 cells)
T1 sequence (P08183 whole entry): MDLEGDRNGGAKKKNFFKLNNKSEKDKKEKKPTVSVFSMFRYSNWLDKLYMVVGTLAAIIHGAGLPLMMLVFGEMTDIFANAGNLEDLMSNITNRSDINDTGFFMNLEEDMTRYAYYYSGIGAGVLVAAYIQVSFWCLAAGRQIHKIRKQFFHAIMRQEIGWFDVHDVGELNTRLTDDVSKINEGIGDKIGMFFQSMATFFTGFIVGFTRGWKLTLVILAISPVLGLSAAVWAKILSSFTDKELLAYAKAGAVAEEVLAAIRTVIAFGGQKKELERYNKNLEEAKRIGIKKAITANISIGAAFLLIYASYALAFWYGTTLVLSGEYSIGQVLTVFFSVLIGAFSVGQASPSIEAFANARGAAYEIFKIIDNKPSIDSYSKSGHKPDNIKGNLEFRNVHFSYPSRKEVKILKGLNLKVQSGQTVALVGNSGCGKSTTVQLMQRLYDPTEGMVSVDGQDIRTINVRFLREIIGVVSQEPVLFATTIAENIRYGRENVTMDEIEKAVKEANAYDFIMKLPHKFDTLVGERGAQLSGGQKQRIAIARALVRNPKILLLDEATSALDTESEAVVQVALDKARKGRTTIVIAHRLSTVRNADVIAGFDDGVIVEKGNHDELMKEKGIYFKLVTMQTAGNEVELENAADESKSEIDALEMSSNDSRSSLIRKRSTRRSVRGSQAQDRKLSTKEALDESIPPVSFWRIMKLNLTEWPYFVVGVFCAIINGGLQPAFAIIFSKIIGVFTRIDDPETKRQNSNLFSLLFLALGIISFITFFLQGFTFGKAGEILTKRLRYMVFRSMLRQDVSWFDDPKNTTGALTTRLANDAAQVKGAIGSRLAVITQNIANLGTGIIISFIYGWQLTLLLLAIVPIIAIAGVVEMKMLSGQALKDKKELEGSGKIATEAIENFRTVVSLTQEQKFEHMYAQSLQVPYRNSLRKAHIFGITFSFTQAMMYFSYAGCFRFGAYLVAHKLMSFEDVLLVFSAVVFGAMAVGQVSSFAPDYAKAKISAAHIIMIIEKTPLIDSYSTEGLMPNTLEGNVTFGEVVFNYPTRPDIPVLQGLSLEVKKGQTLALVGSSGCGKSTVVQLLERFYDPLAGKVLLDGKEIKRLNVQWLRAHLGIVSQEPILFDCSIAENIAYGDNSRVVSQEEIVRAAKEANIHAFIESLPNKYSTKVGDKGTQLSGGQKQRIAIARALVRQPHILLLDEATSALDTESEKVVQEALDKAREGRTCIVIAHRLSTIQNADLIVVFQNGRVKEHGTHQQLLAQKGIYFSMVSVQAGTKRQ
Excerpt: (§1) In this assay, hydrolysis of intracellular calcein-AM to calcein by endogenous cellular esterases causes the cell to become highly fluorescent (see Figure S1 in Supporting Information).
Full details are provided in the Supporting Information.

[2] = target: T2, human P-glycoprotein (hPgp) (Homo sapiens, UniProt P08183); experiment: hPgp-mediated calcein-AM efflux assay in Caco-2 VB cells; type: cell-based; settings: for EC50: Caco-2 VB cells, calcein-AM, read-out: inhibition of calcein extrusion, EC50
T2 construct: Caco-2 VB cells, which overexpress hPGP, were generated by growing Caco-2 cells in the presence of 1 μg/mL vinblastine; endogenous in cells; host or cells: Caco-2 VB (vinblastine-resistant human colorectal adenocarcinoma Caco-2 cells)
T2 sequence (P08183 whole entry): as above
Method: as §1
The colorectal adenocarcinoma Caco-2 cell line was generously provided by the Zydus Research Centre, Ahmedabad, Gujarat, India. […] Caco-2 VB cells, which overexpress hPGP, were generated by growing Caco-2 cells in the presence of 1 μg/mL vinblastine. The drug was removed from the culture medium 2–3 days prior to using the Caco-2 VB cells in the biological assays.
Each well contained 100 μL of cells in culture medium, 50 μL of a solution containing the TRZ-DPHM derivative, and 50 μL of calcein-AM (total volume, 200 μL). The final concentration of putative hPGP inhibitor in each assay ranged from 0.01 to 30 μg/mL. […] Caco-2 cells were used as a negative control (Figure S1). […] PBS was used for all dilutions. All experiments were performed in triplicate.
The effectiveness of inhibitors on Pgp efflux activity, i.e., calcein retention was calculated by the following equation [drawing 1] where FT is the fluorescence of treated cells and FU is the fluorescence of untreated cells.

[3] = Homo sapiens, Caco-2 cell line (Table S3)
[4] = Homo sapiens, Caco-2 cell line, MTT assay (Table 1)

| Compound | IC50 [1, 3] [µM] | melting point [°C] | IC50 [1, 4] [µM] | EC50 [2] [µM] | other results |
| --- | --- | --- | --- | --- | --- |
| CC(=O)C1=C(C)NC(=O)NC1c1ccccc1OCc1cn(-c2ccc([N+](=O)[O-])cc2)nn1 (stereo not shown) [6ac′, 5-Acetyl-6-methyl-4-(2-((1-(4-nitrophenyl)-1H-1,2,3-triazol-4-yl)methoxy)phenyl)-3,4-dihydropyrimidin-2(1H)-one] | 2 ± 0.53 | 148 to 150 |  |  |  |
| CC(=O)C1=C(C)NC(=O)NC1c1ccccc1OCc1cn(-c2c(Cl)cc(Cl)cc2Cl)nn1 (stereo not shown) [6af′, 5-Acetyl-6-methyl-4-(2-((1-(2,4,6-trichlorophenyl)-1H-1,2,3-triazol-4-yl)methoxy)phenyl)-3,4-dihydro-pyrimidin-2(1H)-one] | 3.7 ± 0.3 | 139 to 141 |  |  |  |
| COc1cccc2c1C(=O)c1c(O)c3c(c(O)c1C2=O)C[C@@](O)(C(C)=O)C[C@@H]3O[C@H]1C[C@H](N)[C@H](O)[C@H](C)O1 [daunorubicin, reference compound] |  |  | 14 ± 2 |  |  |
| CC(=O)C1=C(C)NC(=O)NC1c1cc(Br)cc(Br)c1OCc1cn(-c2ccccc2[N+](=O)[O-])nn1 (stereo not shown) [6cb′, 5-Acetyl-4-(3,5-dibromo-2-((1-(2-nitrophenyl)-1H-1,2,3-triazol-4-yl)methoxy)phenyl)-6-methyl-3,4-dihydro-pyrimidin-2(1H)-one] |  | 167 to 169 | 1.22 ± 0.08 | 3.4 ± 0.3 | intracellular calcein retention by fluorescence microscopy (hPgp): confirmed intracellular calcein retention |
| CC(=O)C1=C(C)NC(=O)NC1c1ccccc1OCc1cn(-c2ccccc2[N+](=O)[O-])nn1 (stereo not shown) [6ab′, 5-Acetyl-6-methyl-4-(2-((1-(2-nitrophenyl)-1H-1,2,3-triazol-4-yl)methoxy)phenyl)-3,4-dihydropyrimidin-2(1H)-one] |  | 133 to 135 | 1.3 ± 0.8 | 15.42 ± 0.06 | decrease in potency on replacing chlorine by nitro group ([2]; relative to 6ad′, calcein-AM assay): 5 fold |
| COc1cc(C2NC(=O)NC(C)=C2C(C)=O)ccc1OCc1cn(-c2ccccc2)nn1 (stereo not shown) [6da′, 5-Acetyl-4-(3-methoxy-4-((1-phenyl-1H-1,2,3-triazol-4-yl)methoxy)phenyl)-6-methyl-3,4-dihydropyrimidin-2(1H)-one] | 2.56 ± 0.04 | 151 to 153 |  |  |  |
| CC(=O)C1=C(C)NC(=O)NC1c1ccccc1OCc1cn(-c2ccccc2)nn1 (stereo not shown) [6aa′, 5-Acetyl-6-methyl-4-(2-((1-phenyl-1H-1,2,3-triazol-4-yl)methoxy)phenyl)-3,4-dihydropyrimidin-2(1H)-one] | 1 ± 0.3 | 145 to 147 | 1.1 ± 0.2 | 12.56 ± 0.08 |  |
| CC(=O)C1=C(C)NC(=O)NC1c1ccc(OCc2cn(-c3cccc(Cl)c3)nn2)cc1 (stereo not shown) [6bd′, 5-Acetyl-4-(4-((1-(3-chlorophenyl)-1H-1,2,3-triazol-4-yl)methoxy)phenyl)-6-methyl-3,4-dihydropyrimidin-2(1H)-one] |  | 142 to 144 | 0.76 ± 0.06 | 4.8 ± 0.2 | cytotoxic activity in words ([1]; Caco-2 cell line): sub-micromolar |
| COc1cc(C2NC(=O)NC(C)=C2C(C)=O)ccc1OCc1cn(-c2ccc([N+](=O)[O-])cc2)nn1 (stereo not shown) [6dc′, 5-Acetyl-4-(3-methoxy-4-((1-(4-nitrophenyl)-1H-1,2,3-triazol-4-yl)methoxy)phenyl)-6-methyl-3,4-dihydro-pyrimidin-2(1H)-one] | 2.97 ± 0.03 | 159 to 161 |  |  |  |
| CC(=O)C1=C(C)NC(=O)NC1c1ccc(OCc2cn(-c3c(Cl)cc(Cl)cc3Cl)nn2)cc1 (stereo not shown) [6bf′, 5-Acetyl-6-methyl-4-(4-((1-(2,4,6-trichlorophenyl)-1H-1,2,3-triazol-4-yl)methoxy)phenyl)-3,4-dihydro-pyrimidin-2(1H)-one] | 1.5 ± 0.07 | 135 to 137 |  |  |  |
| CC(=O)C1=C(C)NC(=O)NC1c1cc(Br)cc(Br)c1OCc1cn(-c2ccc([N+](=O)[O-])cc2)nn1 (stereo not shown) [6cc′, 5-Acetyl-4-(3,5-dibromo-2-((1-(4-nitrophenyl)-1H-1,2,3-triazol-4-yl)methoxy)phenyl)-6-methyl-3,4-dihydro-pyrimidin-2(1H)-one] |  | 165 to 167 | 1.25 ± 0.08 | 8.9 ± 0.1 |  |
| CC(=O)C1=C(C)NC(=O)NC1c1ccc(OCc2cn(-c3ccccc3)nn2)cc1 (stereo not shown) [6ba′, 5-Acetyl-6-methyl-4-(4-((1-phenyl-1H-1,2,3-triazol-4-yl)methoxy)phenyl)-3,4-dihydropyrimidin-2(1H)-one] | 2.2 ± 0.2 | 133 to 135 |  |  |  |
| CC(=O)C1=C(C)NC(=O)NC1c1ccc(OCc2cn(-c3ccc([N+](=O)[O-])cc3)nn2)cc1 (stereo not shown) [6bc′, 5-Acetyl-6-methyl-4-(4-((1-(4-nitrophenyl)-1H-1,2,3-triazol-4-yl)methoxy)phenyl)-3,4-dihydropyrimidin-2(1H)-one] | 2.44 ± 0.04 | 134 to 136 |  |  |  |
| CC(=O)C1=C(C)NC(=O)NC1c1ccccc1OCc1cn(-c2cccc(Cl)c2)nn1 (stereo not shown) [6ad′, 5-Acetyl-4-(2-((1-(3-chlorophenyl)-1H-1,2,3-triazol-4-yl)methoxy)phenyl)-6-methyl-3,4-dihydropyrimi-din-2(1H)-one] |  | 130 to 132 | 0.57 ± 0.03 | 3.14 ± 0.03 | cytotoxic activity in words ([1]; Caco-2 cell line): sub-micromolar; intracellular calcein retention by fluorescence microscopy (hPgp): confirmed intracellular calcein retention; modulation of hPgp function compared with cyclosporin A or verapamil (statistical analysis) (hPgp; calcein retention, p < 0.0001): better modulator of hPgp function |
| Nc1ccn([C@@H]2O[C@H](CO)[C@@H](O)C2(F)F)c(=O)n1 [gemcitabine, reference compound] | 4.5 ± 0.98 |  | 5 ± 1 |  |  |
| CC(=O)C1=C(C)NC(=O)NC1c1ccc(OCc2cn(-c3ccccc3[N+](=O)[O-])nn2)cc1 (stereo not shown) [6bb′, 5-Acetyl-6-methyl-4-(4-((1-(2-nitrophenyl)-1H-1,2,3-triazol-4-yl)methoxy)phenyl)-3,4-dihydropyrimidin-2(1H)-one] | 1.6 ± 0.1 | 157 to 159 |  |  |  |
| COc1ccc(-n2cc(COc3ccc(C4NC(=O)NC(C)=C4C(C)=O)cc3)nn2)c(OC)c1 (stereo not shown) [6bh′, 5-Acetyl-4-(4-((1-(2,4-dimethoxyphenyl)-1H-1,2,3-triazol-4-yl)methoxy)phenyl)-6-methyl-3,4-dihydro-pyrimidin-2(1H)-one] |  | 140 to 142 | 0.6 ± 0.2 | 4.2 ± 0.2 |  |
| N.N.O=C([O-])C1(C(=O)[O-])CCC1.[Pt+2] [carboplatin, reference compound] |  |  |  |  | IC50 ([1]; Caco-2 cell line, MTT assay (Table 1)): 7 ± 2 µM |
| CC(=O)C1=C(C)NC(=O)NC1c1cc(Br)cc(Br)c1OCc1cn(-c2ccccc2)nn1 (stereo not shown) [6ca′, 5-Acetyl-4-(3,5-dibromo-2-((1-phenyl-1H-1,2,3-triazol-4-yl)methoxy)phenyl)-6-methyl-3,4-dihydropyrimidin-2(1H)-one] |  | 157 to 159 | 0.9 ± 0.1 | 4 ± 0.2 | intracellular calcein retention by fluorescence microscopy (hPgp): confirmed intracellular calcein retention |
| COc1cc(C2NC(=O)NC(C)=C2C(C)=O)ccc1OCc1cn(-c2ccccc2[N+](=O)[O-])nn1 (stereo not shown) [6db′, 5-Acetyl-4-(3-methoxy-4-((1-(2-nitrophenyl)-1H-1,2,3-triazol-4-yl)methoxy)phenyl)-6-methyl-3,4-dihydropyri-midin-2(1H)-one] |  |  |  |  | IC50 ([1]; Caco-2 cell line (Table S3)): 2.29 ± 0.09 µM |
| CC(=O)C1=C(C)NC(=O)NC1c1ccc(OCc2cn(-c3cccc(Br)c3)nn2)cc1 (stereo not shown) [6be′, 5-Acetyl-4-(4-((1-(3-bromophenyl)-1H-1,2,3-triazol-4-yl)methoxy)phenyl)-6-methyl-3,4-dihydropyrimidin-2(1H)-one] |  | 138 to 140 | 0.8 ± 0.1 | 9.25 ± 0.02 | cytotoxic activity in words ([1]; Caco-2 cell line): sub-micromolar |
| CC(=O)C1=C(C)NC(=O)NC1c1ccccc1OCc1cn(-c2cccc(Br)c2)nn1 (stereo not shown) [6ae′] |  |  |  |  | IC50 ([1]; Caco-2 cell line (Table S3)): 2 ± 1.2 µM |
